# Results published in US20250304643A1, “PEPTIDE DUAL AGONISTS OF GIPR AND GLP2R” (BAINAN BIOTECH APS, priority 2021, published 2025).
# Where two headings read alike, the source gives them in different places.
# Assays:
# Type in all cases: cell-based
# human GLP-2R = molecular target: T1, human GLP-2R (Homo sapiens, UniProt O95838); assay: HitHunter cAMP assay in transiently transfected COS-7 cells, human GLP-2R; conditions: Emax normalized to highest concentration of endogenous ligand; Table 2;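 note: cells kept 30 min at 37 °C in buffer with 1 mM IBMX, then given ligand for another 30 min at 37 °C before cAMP readout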
# T1 construct: host or cells: COS-7
# T1 sequence (O95838 1-553): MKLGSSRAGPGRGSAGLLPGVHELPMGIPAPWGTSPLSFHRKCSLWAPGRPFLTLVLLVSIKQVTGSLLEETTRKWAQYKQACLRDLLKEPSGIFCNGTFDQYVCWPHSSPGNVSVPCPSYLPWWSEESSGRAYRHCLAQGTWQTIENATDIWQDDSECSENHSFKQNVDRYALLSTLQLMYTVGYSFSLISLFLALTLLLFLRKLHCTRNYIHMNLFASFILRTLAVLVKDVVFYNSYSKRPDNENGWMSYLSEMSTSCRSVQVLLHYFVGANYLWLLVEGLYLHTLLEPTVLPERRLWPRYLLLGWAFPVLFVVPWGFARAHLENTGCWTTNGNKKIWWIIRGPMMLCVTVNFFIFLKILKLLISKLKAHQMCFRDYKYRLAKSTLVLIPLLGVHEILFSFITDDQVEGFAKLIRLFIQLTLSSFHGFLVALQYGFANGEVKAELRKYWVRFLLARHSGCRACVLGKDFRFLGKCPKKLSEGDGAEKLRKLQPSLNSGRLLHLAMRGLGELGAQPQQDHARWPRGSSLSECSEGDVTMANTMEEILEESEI
# Method: COS-7 cells were cultured at 10% CO2 and 37° C. in Dulbecco's Modified Eagle Medium (DMEM) 1885 supplemented with 10% fetal bovine serum (FBS), 2 mM glutamine, 180 units/ml penicillin, and 45 g/ml streptomycin.
# The next day the assay was initiated by washing with HEPES buffered saline (HBS) and followed by an incubation step with assay buffer (HBS added 1 mM isobutyl-1-methylxanthine (IBMX)) for 30 min at 37° C. The ligands were then added and incubated for an additional 30 min at 37° C. After ligand incubation, the HitHunter® CAMP assay (Eurofins DiscoverX, Fremont, 150 USA) was carried out according to the manufacturer's instructions. Luminescence was measured by PerkinElmer™ EnVision 2014 Multilabel Reader (PerkinElmer, Waltham, MA). The potencies (EC50 values) were determined by nonlinear regression using GraphPad Prism 9 (San Diego, California, USA). Sigmoid curves were fitted logistically. The efficacies (Emax values) were determined by normalization to the highest concentration applied of the endogenous ligand for each receptor.
# human GLP-1R = molecular target: T2, human GLP-1R (Homo sapiens, UniProt P43220); assay: HitHunter cAMP assay in transiently transfected COS-7 cells, human GLP-1R; conditions: Emax normalized to highest concentration of endogenous ligand; Table 3
# T2 construct: host or cells: COS-7
# Method: (§1) The next day the assay was initiated by washing with HEPES buffered saline (HBS) and followed by an incubation step with assay buffer (HBS added 1 mM isobutyl-1-methylxanthine (IBMX)) for 30 min at 37° C. The ligands were then added and incubated for an additional 30 min at 37° C. After ligand incubation, the HitHunter® CAMP assay (Eurofins DiscoverX, Fremont, […] USA) was carried out according to the manufacturer's instructions. Luminescence was measured by PerkinElmer™ EnVision 2014 Multilabel Reader (PerkinElmer, Waltham, MA). The potencies (EC50 values) were determined by nonlinear regression using GraphPad Prism 9 (San Diego, California, USA). Sigmoid curves were fitted logistically. The efficacies (Emax values) were determined by normalization to the highest concentration applied of the endogenous ligand for each receptor.
# rat GIPR = molecular target: T3, rat GIPR (Rattus norvegicus, UniProt P43219); assay: HitHunter cAMP assay in transiently transfected COS-7 cells, rat GIPR; conditions: Emax normalized to highest concentration of endogenous ligand
# T3 construct: expressed in transfected cells; host or cells: COS-7
# T3 sequence (P43219 19-455): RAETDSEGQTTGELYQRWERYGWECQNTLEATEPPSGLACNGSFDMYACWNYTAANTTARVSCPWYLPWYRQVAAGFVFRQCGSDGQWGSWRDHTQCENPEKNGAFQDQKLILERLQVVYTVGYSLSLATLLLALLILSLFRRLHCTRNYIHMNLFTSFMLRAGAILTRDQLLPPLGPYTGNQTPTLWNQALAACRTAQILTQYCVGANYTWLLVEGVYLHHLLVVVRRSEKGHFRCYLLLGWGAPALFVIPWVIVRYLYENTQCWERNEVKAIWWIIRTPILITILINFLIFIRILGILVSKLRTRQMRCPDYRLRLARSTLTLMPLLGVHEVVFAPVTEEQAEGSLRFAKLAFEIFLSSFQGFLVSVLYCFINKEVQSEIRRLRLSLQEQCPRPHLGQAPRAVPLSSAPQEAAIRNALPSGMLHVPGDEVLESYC
# Method: as §1
# rat GLP-2R = molecular target: T4, rat GLP-2R (Rattus norvegicus, UniProt Q9Z0W0); assay: HitHunter cAMP assay in transiently transfected COS-7 cells, rat GLP-2R; conditions: Emax normalized to highest concentration of endogenous ligand
# T4 construct: expressed in transfected cells; host or cells: COS-7
# T4 sequence (Q9Z0W0 1-550): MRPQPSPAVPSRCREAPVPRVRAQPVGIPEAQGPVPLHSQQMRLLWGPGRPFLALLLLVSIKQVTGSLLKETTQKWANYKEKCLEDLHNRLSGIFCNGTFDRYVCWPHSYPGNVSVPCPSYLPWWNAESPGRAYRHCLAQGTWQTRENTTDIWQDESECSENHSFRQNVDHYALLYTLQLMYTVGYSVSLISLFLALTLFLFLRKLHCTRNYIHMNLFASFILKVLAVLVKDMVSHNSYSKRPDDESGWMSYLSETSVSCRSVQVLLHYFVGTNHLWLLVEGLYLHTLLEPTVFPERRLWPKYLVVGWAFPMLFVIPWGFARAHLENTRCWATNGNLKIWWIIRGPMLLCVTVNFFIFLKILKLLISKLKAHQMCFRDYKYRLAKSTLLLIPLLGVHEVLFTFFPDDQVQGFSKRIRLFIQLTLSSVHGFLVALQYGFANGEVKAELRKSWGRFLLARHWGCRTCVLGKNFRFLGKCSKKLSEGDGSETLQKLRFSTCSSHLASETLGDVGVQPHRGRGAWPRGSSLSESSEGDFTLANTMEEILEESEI
# Method: as §1
# human GIPR [1] = molecular target: T5, human GIPR (Homo sapiens, UniProt P48546); set-up: host or cells: COS-7; conditions: Emax normalized to highest concentration of endogenous ligand; Table 2
# T5 sequence (P48546 22-466): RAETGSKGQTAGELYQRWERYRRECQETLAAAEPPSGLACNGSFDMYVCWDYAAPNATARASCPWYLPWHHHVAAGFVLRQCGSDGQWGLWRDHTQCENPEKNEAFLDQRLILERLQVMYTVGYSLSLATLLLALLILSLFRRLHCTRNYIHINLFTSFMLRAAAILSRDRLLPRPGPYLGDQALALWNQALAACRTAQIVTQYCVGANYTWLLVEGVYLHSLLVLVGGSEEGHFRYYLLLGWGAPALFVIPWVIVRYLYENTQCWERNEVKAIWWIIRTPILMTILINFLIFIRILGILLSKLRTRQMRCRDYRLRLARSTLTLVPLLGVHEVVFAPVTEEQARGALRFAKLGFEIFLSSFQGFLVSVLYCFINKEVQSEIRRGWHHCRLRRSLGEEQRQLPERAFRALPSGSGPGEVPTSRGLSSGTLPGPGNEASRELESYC
# human SNAP-GIPR = molecular target: T6, human SNAP-GIPR (Homo sapiens, UniProt P48546); set-up: AUC ± SD: unit not given beside the values; conditions: for Emax ± SD (%): NA = no activity
# T6 construct: host or cells: HEK293A
# T6 sequence (P48546 22-466): T5 sequence (P48546 22-466)
# human GIPR [2] = molecular target: T5, human GIPR; set-up: host or cells: HEK293; conditions: beta-arrestin 2 recruitment; for AUC ± SD: AUC of sigmoid curves up to 100 nM; for Emax ± SD (%): normalized to highest concentration of GIP, NA = no activity
# Method: HEK293 cells were cultured at 10% CO2 and 37° C. in DMEM-GlutaMAX™-I supplemented with 10% FBS, 180 units/mL penicillin and 45 g/mL streptomycin. These cells were transfected using PEI for the beta-arrestin recruitment assay as described in detail in (van der Velden et al., 2021).
# HEK293 cells were transiently transfected with human GIPR, the donor Rluc8-Arrestin-3-Sp1 (beta-arrestin 2 recruitment), the acceptor mem-linker-citrine-SH3, and the GPCR kinase 2 (GRK2). Two days following transfection, the cells were washed with PBS and resuspended in PBS with 5 mM glucose. Then, 85 μL of the cell suspension solution was added to each well of a white 96-well plate followed by the addition of PBS with 5 μM coelenterazine-h. Following 10 min incubation, increasing concentrations of ligands were added and incubated for an additional 30 min. Luminescence was measured with the Berthold Technologies Mithras Multilabel Reader (Rluc8 at 485±40 nm and YFP at 530±25 nm). The potencies (EC50 values) were determined by nonlinear regression using GraphPad Prism 9 (San Diego, California, USA). Sigmoid curves were fitted logistically. The efficacies (Emax values) were determined by normalization to the highest concentration applied of the endogenous ligand (GIP) for the GIPR.
# macaque GIPR = assay: HitHunter cAMP assay in transiently transfected COS-7 cells, macaque GIPR
# Method: as §1
# T2 sequence (P43220 24-463): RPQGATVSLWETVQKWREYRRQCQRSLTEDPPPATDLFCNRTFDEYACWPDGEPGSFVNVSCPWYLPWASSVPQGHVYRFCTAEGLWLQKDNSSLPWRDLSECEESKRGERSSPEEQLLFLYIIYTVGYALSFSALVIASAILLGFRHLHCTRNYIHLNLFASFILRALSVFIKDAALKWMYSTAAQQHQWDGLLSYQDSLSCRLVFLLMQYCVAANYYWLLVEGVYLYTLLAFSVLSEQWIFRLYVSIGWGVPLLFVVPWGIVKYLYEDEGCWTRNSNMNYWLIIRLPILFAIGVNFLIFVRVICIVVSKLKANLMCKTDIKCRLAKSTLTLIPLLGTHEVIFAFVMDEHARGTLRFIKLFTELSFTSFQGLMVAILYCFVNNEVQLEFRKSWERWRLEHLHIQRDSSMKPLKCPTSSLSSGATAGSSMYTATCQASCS
Substance,Efficacy GLP-2R (human GLP-2R),Efficacy GLP-1R (human GLP-1R),rGIPR Efficacy (%) (rat GIPR),rGLP-2R Efficacy (%) (rat GLP-2R),Efficacy GIPR (human GIPR [1]),AUC ± SD (human SNAP-GIPR),Emax ± SD (%) (human SNAP-GIPR; GIPR internalization),AUC ± SD (human GIPR [2]),Emax ± SD (%) (human GIPR [2]),"maGIPR Efficacy (%) (macaque GIPR; Emax normalized to highest concentration of the endogenous ligand, COS-7 cells)","maGIPR pEC50 (macaque GIPR; cAMP, transiently transfected COS-7 cells)","AUC ± SD (human SNAP-GIPR; GIPR internalization, AUC of sigmoid curves up to 1 μM)"
(C10)H-Aib-DGTFISDYST-Aib-LDNLAARDFINWLIQTKITK-OH [Compound no. 44],100,19,87.3,90.0,110,–,–,–,–,–,–,–
H-Aib-DGTFISDY-K(γGlu-C16)-TILDNLAARDFINWLIQTKGKKNDWKHNITQ-NH2 [Compound no. 14],114,0,98.3,93.3,101,–,–,–,–,–,–,–
H-Aib-DGTFISDY-K(γGlu-C16)-T-Aib-LDALAARDFIEWLIQTKITK-OH [Compound no. 33],97,–,98.7,96.3,101,27 ± 2,25 ± 3,23 ± 12,9 ± 5,–,–,–
H-Aib-DGTFISDYS-K(γGlu-C16)-Aib-LDNLAARDFINWLIQTKITK-OH [Compound no. 35],88,31,86.3,87.3,106,–,–,58 ± 14,34 ± 7,–,–,–
H-Aib-DG-K(γGlu-C16)-FISDYSTILDNLAARDFINWLIQTKITK-OH [Compound no. 9],91,32,74.3,82.0,110,–,–,–,–,–,–,–
H-Aib-DG-K(γGlu-C16 diacid)-FISDYST-Aib-LDNLAARDFINWLIQTKITK-OH [Compound no. 25],88,–,71.7,65.0,93,57 ± 2,46 ± 2,42 ± 15,23 ± 7,–,–,–
H-Aib-DGTFISDY-K(γGlu-C10)-TILDKLAARDFIEWLIATKITK-OH [Compound no. 31],90,6,85.0,86.3,89,0,–,0,–,–,–,–
H-Aib-DG-K(γGlu-C10)-FISDYST-Aib-LDNLAARDFINWLIQTKITK-OH [Compound no. 24],90,–,96.3,76.3,113,113 ± 4,68 ± 3,117 ± 31,57 ± 16,–,–,–
H-Aib-DGTFISDY-K(γGlu-C16)-TAib-LDNLAARDFINWLIQTKITKNDWKHNITQ-OH [Compound no. 37],97,–,91.0,83.3,–,15 ± 4,24 ± 5,0,15 ± 41,–,–,–
H-Aib-DGTFISDY-K(yglu-C10)-T-Aib-LDNLAARDFINWLIQTKITGNDWKHNITQ-OH [Compound no. 54],87,8,110.3,108.0,86,–,–,–,–,71.8,7.7,–
(C16)HADGTFISDYSTAibLDNLAARDFINWLIQTKITKNDWKHNITQ [Compound no. 53],79,–,77.3,18.0,90,–,–,–,–,–,–,–
H-Aib-DGTFISDYSTIL-K(γGlu-C16)-NLAARDFINWLIQTKITK-OH [Compound no. 13],95,4,69.7,83.7,95,–,–,–,–,–,–,–
(C16)H-Aib-DGTFISDYSTILDNLAARDFIEWLIQTKITK-OH [Compound no. 7],101,13,–,–,114,–,–,–,–,–,–,–
Ac-H-Aib-DGTFISDYS-K(γGlu-C16)-Aib-LDNLAARDFINWLIQTKITK-OH [Compound no. 36],76,19,–,–,92,–,58 ± 8,–,–,–,–,47 ± 1
